Measured values published in article PMC8379669 (Computational and Structural Biotechnology Journal, 2021).

Tests used:
[1] = target: AChE from Electrophorus electricus (electric eel) (Electrophorus electricus, UniProt O42275); assay: In vitro AChE inhibition assay; format: biochemical
[2] = tested on: rat primary cortical neurons; assay: Glutamate-induced excitotoxicity, MTT assay; format: cell-based; conditions: DIV9 neurons, glutamate 3 h, MTT after 24 h; pre-treatment with compounds
rat liver = assay: In vivo hepatotoxicity assessment by liver histopathology; conditions: IP, 15 days; for liver histopathology (H&E), in words: 201 3 mg/Kg, 208 1 mg/Kg, tacrine 5 mg/Kg
BChE from equine serum = BChE from equine serum (Equus caballus, UniProt P81908); assay: biochemical; format: biochemical; conditions: for IC50 values (mean ± SD) BChE: BChE from equine serum
BChE from equine serum, sequence (P81908 whole entry): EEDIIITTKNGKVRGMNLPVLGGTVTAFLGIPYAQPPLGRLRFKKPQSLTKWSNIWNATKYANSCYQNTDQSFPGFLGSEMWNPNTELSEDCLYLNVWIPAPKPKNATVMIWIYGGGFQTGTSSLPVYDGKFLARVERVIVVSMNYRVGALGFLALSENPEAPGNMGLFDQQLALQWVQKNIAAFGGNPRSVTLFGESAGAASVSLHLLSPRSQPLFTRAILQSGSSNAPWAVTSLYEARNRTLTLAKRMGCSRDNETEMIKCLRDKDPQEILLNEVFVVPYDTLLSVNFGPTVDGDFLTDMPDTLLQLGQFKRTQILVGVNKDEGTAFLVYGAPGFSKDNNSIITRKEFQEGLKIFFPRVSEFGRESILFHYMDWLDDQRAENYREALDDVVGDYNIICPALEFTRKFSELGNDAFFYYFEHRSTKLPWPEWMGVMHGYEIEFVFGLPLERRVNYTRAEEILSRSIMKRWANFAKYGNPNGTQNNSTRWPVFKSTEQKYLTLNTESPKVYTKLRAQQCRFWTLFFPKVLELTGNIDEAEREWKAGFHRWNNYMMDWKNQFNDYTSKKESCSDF

[3] = tested on: rat primary cortical neurons; assay: Glutamate-induced excitotoxicity, MAP2 immunostaining and DAPI staining; format: cell-based; conditions: DIV9 neurons, 100 µM glutamate and 10 µM glycine
[4] = target: GluN2B containing NMDAR (GluN1/GluN2B) in HEK-293 cells (Homo sapiens, UniProt Q05586+Q13224); assay: Cell-based NMDAR activity assay; conditions: for inhibition at 50 µM / inhibition at 100 µM: HEK293, read-out: inhibition of NMDAR activity; for category of NMDAR inhibitor: based on NMDAR IC50; for antagonism of NMDAR activity, in words: initial screening studies
GluN2B containing NMDAR (GluN1/GluN2B) in HEK-293 cells, sequence (Q13224 27-1484, species assumed, other chains not shown): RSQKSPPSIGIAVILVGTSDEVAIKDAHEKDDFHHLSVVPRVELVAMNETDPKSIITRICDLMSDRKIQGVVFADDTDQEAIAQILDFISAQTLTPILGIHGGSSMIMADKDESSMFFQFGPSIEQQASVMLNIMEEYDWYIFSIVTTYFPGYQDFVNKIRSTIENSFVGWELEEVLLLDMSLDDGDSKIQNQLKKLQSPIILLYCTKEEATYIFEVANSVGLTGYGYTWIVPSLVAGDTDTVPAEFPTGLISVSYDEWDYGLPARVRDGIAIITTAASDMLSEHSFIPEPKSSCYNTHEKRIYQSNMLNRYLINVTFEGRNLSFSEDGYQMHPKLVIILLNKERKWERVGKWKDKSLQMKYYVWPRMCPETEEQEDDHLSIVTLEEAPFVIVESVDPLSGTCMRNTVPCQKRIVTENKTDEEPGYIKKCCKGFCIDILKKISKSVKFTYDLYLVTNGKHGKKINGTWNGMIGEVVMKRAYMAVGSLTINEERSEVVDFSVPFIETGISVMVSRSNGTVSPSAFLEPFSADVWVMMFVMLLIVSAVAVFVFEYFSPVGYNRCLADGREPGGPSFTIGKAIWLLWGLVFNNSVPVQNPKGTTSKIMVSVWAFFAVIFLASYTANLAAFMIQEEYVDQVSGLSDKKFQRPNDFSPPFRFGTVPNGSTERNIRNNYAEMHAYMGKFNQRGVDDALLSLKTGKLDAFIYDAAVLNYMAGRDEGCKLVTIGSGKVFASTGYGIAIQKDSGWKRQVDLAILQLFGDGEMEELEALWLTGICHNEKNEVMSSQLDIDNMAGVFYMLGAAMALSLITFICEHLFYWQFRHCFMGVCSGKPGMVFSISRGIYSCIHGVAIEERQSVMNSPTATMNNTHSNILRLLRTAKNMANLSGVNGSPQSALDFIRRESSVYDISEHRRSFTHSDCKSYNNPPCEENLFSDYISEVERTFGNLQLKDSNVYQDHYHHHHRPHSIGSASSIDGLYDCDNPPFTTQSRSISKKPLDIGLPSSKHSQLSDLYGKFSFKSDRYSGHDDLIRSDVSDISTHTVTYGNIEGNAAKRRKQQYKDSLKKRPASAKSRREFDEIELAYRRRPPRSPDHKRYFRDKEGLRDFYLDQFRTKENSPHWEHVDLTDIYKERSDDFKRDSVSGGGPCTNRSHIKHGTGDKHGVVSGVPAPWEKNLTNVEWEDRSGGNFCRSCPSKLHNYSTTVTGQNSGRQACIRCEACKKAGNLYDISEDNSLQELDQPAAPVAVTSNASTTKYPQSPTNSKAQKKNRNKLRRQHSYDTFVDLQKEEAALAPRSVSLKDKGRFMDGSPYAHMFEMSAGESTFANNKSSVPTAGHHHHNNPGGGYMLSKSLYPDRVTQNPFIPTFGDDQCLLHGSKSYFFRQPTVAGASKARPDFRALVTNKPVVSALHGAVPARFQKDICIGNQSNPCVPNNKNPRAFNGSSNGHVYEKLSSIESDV

AChE = conditions: read-out: IC50 (AChEI); cited from earlier work
HepG2 cells = assay: MTT cytotoxicity assay on HepG2 cells; conditions: 24 h
[5] = tested on: MSG induced cognitive impairment in rats; assay: Morris water maze test in MSG treated rats; format: in vivo; conditions: rat, IP, 3 mg/Kg body weight with MSG 4 g/Kg; vs MSG alone
NMDAR = conditions: read-out: IC50 NMDAR, reported value; cited from earlier work

AChE from Electrophorus electricus (electric eel), sequence (O42275 24-633): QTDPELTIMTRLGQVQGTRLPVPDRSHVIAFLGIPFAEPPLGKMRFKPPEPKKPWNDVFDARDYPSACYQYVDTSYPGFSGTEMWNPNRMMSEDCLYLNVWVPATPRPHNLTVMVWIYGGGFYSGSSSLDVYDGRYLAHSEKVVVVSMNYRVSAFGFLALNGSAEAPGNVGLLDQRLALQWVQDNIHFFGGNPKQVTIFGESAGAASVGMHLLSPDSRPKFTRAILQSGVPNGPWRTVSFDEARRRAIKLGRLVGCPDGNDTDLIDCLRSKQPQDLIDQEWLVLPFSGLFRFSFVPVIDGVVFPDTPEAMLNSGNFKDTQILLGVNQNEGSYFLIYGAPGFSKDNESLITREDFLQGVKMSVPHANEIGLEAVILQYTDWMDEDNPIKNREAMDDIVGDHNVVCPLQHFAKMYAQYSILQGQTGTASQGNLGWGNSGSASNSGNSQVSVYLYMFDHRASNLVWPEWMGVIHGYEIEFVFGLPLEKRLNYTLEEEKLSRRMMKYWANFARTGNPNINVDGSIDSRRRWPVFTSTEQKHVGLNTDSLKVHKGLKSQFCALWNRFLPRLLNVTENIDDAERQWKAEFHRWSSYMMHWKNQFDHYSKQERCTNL

## Nc1c2c(nc3cc(-c4ccccc4F)ccc13)CCCC2 [Compound 208, 6-(2-fluorophenyl)-1,2,3,4-tetrahydroacridin-9-amine]
[1]
  IC50: 75.1 ± 9.46 nM
[1]; AChE from electric eel vs BChE from equine serum
  selectivity between AChE and BChE, in words: comparable inhibitory potency towards both AChE and BChE
[2]
  reduction in neuronal viability by glutamate (MTT assay): averted
Rat liver
  animals showing mild periportal inflammation or congestion: 5 out of 6 animals
  liver histopathology (H&E), in words: mild periportal inflammation or mild congestion
BChE from equine serum
  IC50: 130 ± 20 nM
  IC50 values (mean ± SD) BChE: submicromolar
[3]
  condensed nuclei / viable cells (DAPI staining) after glutamate: clear decrease in the number of condensed nuclei
  decrease in MAP2 positive cells and loss of neuronal architecture caused by glutamate: prevented
[4]
  IC50: 310 ± 90 nM
  fold higher NMDAR inhibitory potency compared to reported value for tacrine: ~600 fold
  inhibition at 50 µM: ~100%
  inhibition at 100 µM: ~100%
  category of NMDAR inhibitor: potent (potent (IC50 < 5 μM))
  antagonism of NMDAR activity, in words: effective in antagonizing NMDAR activity
[4]; 5 μM, with NMDAR agonists and Ca2+ (Fig. 2B)
  number of punctate cells: Reduction in the number of punctate cells

## CSc1ccc(-c2ccc3c(N)c4c(nc3c2)CCCC4)cc1 [Compound 210, 6-(4-(methylthio)phenyl)-1,2,3,4-tetrahydroacridin-9-amine]
[1]
  IC50: 149 ± 16.8 nM
[2]
  reduction in neuronal viability by glutamate (MTT assay): averted
BChE from equine serum
  IC50: 940 ± 120 nM
  IC50 values (mean ± SD) BChE: submicromolar
[3]
  condensed nuclei / viable cells (DAPI staining) after glutamate: clear decrease in the number of condensed nuclei
  decrease in MAP2 positive cells and loss of neuronal architecture caused by glutamate: prevented
[4]
  IC50: 270 ± 50 nM
  fold higher NMDAR inhibitory potency compared to reported value for tacrine: ~600 fold
  inhibition at 50 µM: ~100%
  inhibition at 100 µM: ~100%
  category of NMDAR inhibitor: potent (potent (IC50 < 5 μM))
  antagonism of NMDAR activity, in words: effective in antagonizing NMDAR activity

## Cn1cc(-c2ccc3c(N)c4c(nc3c2)CCCC4)cn1 [Compound 201, 6-(1-methyl-1H-pyrazol-4-yl)-1,2,3,4-tetrahydroacridin-9-amine]
HepG2 cells; 10-300 μM
  cytotoxicity on HepG2 cells, in words: non-toxic
[1]
  IC50: 40.9 ± 4.82 nM
[5]
  escape latency in MWM, 5 days: significantly reduced the escape latency
[2]
  reduction in neuronal viability by glutamate (MTT assay): averted
Rat liver
  liver histopathology (H&E), in words: did not show any change in the liver architecture
BChE from equine serum
  IC50: 850 ± 10 nM
  IC50 values (mean ± SD) BChE: submicromolar
[3]
  condensed nuclei / viable cells (DAPI staining) after glutamate: clear decrease in the number of condensed nuclei
  decrease in MAP2 positive cells and loss of neuronal architecture caused by glutamate: prevented
[4]
  IC50: 15200 ± 6140 nM
  inhibition at 100 µM: ~100%
  category of NMDAR inhibitor: moderate (moderate (IC50 < 20 μM))
  antagonism of NMDAR activity, in words: effective in antagonizing NMDAR activity

## Nc1c2c(nc3ccccc13)CCCC2 [tacrine, reference compound]
HepG2 cells
  concentration up to which safe on HepG2 cells: up to 50 µM
HepG2 cells; HepG2, 300 µM
  reduction in cell viability: ~50%
NMDAR
  IC50: 193000 ± 33000 nM
